Laboratory results from US8242168B2, “Use of phthalide derivatives for the treatment of type 2 diabetes mellitus” (DSM IP Assets B.V., priority 2003, dated 2012).
Several values for one entry are separate records, joined by “and”; a condition that tells them apart may be missing. Equal entries are not always repeated.

Legend:
C3H10T1/2 cells [1] = assay: Glucose uptake of adipocytes (radioactive 2-deoxyglucose); type: cell-based; conditions: for Basal glucose uptake / Basal glucose uptake (result in words): 48-h treatment; for Basal glucose uptake: absence of insulin, ± SEM; for Basal glucose uptake (result in words): different concentrations
Description: C3H10T1/2 cells (ATCC CCL-226) were grown for 5 days to confluence in DMEM supplemented with 10% FBS medium and induced with a mixture of insulin, dexamethasone and 3-isobutyl-1-methylxanthine to differentiate into adipocytes. Nine days after the beginning of induction, cells were treated for 48-h with ligustilide at different concentrations as shown in Table 2. Glucose uptake was determined using radioactive 2-deoxyglucose (10 μM 2-DG in HBS+0.5 μCi/ml of 3[H]-2-DG), measuring glucose uptake in the absence of insulin. Basal glucose uptake was increased by 48-h treatment with ligustilide in a dose-dependent manner (Table 2). This increase in glucose uptake was specific, since the increase was not observed in the presence of phloretin, a known inhibitor of specific glucose uptake.
Growing, induction and treatment of C3H10T1/2 cells were exactly as described in Example 1, with die exception that 3-butylphthalide at different concentrations was used instead of ligustilide.
Growing, induction and treatment of C3H10T1/2 cells were exactly as described in Example 1, with the exception that 3-butylidenphthalide at different concentrations was used instead of ligustilide.

C3H10T1/2 cells [2] = assay: Differentiation of adipocytes (oil Red O staining); type: cell-based; conditions: for Differentiation of the cells into adipocytes versus insulin alone (result in words): co-treatment with insulin, 10 days; for Mean OD ± SEM (oil Red O, 540 nm): 10-day treatment
Description: After the 10-day treatment, the cells were stained with oil Red O as follows: cells were washed 2× in PBS and fixed in 10% formalin at room temperature for 1 h. After removal of formalin, 200 μl of oil Red O staining solution (3:2 mixture of 0.5% w/v oil Red O stock solution and water) was applied to each well. The cells were incubated for 20 min at room temperature, washed twice in 2×PBS and incubated for 10 min with 300 μl of isopropanol/well for oil Red O extraction. Quantification of oil Red O was determined by measuring absorbance at 540 nm (mean OD).
The measurement of adipocyte differentiation using the oil Red O assay was performed as described in Example 4.

C57BLKS/J db/db mice = assay: Blood glucose and oral glucose tolerance test in db/db mice; type: in vivo
Description: The efficacy of ligustilide on glucose tolerance was tested in a 7-day study in C57BLKS/J db/db mice (n=10/group), a model of late type 2 diabetes mellitus with severe hyperglycemia which is widely used to determine the efficacy of PPARγ ligands.
Male db/db mice were obtained from Jackson Laboratory (Bar Harbor, Me., USA). Adult mice aged 12 weeks were used in the experiment. Mice were housed individually in plastic cages with bedding and allowed free access to standard rodent food and tap water. The animal rooms were controlled for temperature (24° C.), humidity (55%), and light (12-h light-dark cycle). The animals were randomized in two groups and ligustilide was administered orally to one of the groups for 7 days at a dose of 200 mg/kg BW/day. After 7 days of treatment the concentration of glucose was determined in blood from fed animals, i.e., animals which were not restricted from food. After a period of 5 days of treatment an oral glucose tolerance test (OGTT) was performed. For the OGTT mice were fasted overnight and then a 1-g glucose/kg BW solution was orally administered. […] Blood glucose was measured by a glucose analyzer (Glucotrend Premium, Roche Diagnostics, Rotkreuz, Switzerland).

[3] = insulin 1 × 10^−7 M + compound 1 × 10^−5 M
[4] = insulin 1 × 10^−7 M + compound 1 × 10^−4 M

Molecule	Basal glucose uptake (C3H10T1/2 cells [1]; 1 × 10^−4 M)	Basal glucose uptake (C3H10T1/2 cells [1]; 1 × 10^−5 M)	Basal glucose uptake (C3H10T1/2 cells [1]; 1 × 10^−6 M)	Basal glucose uptake (result in words) (C3H10T1/2 cells [1])	Differentiation of the cells into adipocytes versus insulin alone (result in words) (C3H10T1/2 cells [2])	Mean OD ± SEM (oil Red O, 540 nm) (C3H10T1/2 cells [2]; [3])	Mean OD ± SEM (oil Red O, 540 nm) (C3H10T1/2 cells [2]; [4])	Basal glucose uptake (C3H10T1/2 cells [1]; 5 × 10^−5 M)	also measured
CCCC[C@@H]1OC(=O)c2ccccc21 (stereo in doubt) [3-Butylphthalide]	136.7 ± 8.5 % of control	97.5 ± 8.5 % of control	99.3 ± 8.5 % of control	increase	higher differentiation	0.21 ± 0.01			
CCC/C=C1\OC(=O)c2ccccc21 [3-Butylidenephthalide]	137.3 ± 8.5 % of control	123.8 ± 8.5 % of control	107.0 ± 8.5 % of control	increase	higher differentiation	0.15 ± 0.01	0.28 ± 0.01		Mean OD ± SEM (oil Red O, 540 nm) (C3H10T1/2 cells [2]; insulin 1 × 10^−7 M + compound 5 × 10^−5 M): 0.22 ± 0.01
CC1(COc2ccc(CC3SC(=O)NC3=O)cc2)CCCCC1 (centres unmarked) [Ciglitazone, reference compound]								381.5 ± 24.4 % of control	
CCC/C=C1\OC(=O)C2=C1CCC=C2 [Ligustilide]	175.0 ± 24.4 % of control			increased	higher differentiation			131.8 ± 24.4 % of control	Basal glucose uptake (C3H10T1/2 cells [1]; 2 × 10^−4 M): 294.4 ± 24.4 % of control; Basal glucose uptake (C3H10T1/2 cells [1]; 5 × 10^−6 M): 105.9 ± 24.4 % of control; Increase in glucose uptake in the presence of phloretin (C3H10T1/2 cells [1]; phloretin, inhibitor of specific glucose uptake): not observed; Mean OD ± SEM (oil Red O, 540 nm) (C3H10T1/2 cells [2]; insulin 2 × 10^−7 M + compound 5 × 10^−6 M): 1.71 ± 0.34; Glucose AUC of an OGTT (result in words) (C57BLKS/J db/db mice; 1 g glucose/kg body weight, day 5): significantly reduced; Blood glucose levels during the OGTT versus control (result in words) (C57BLKS/J db/db mice; OGTT on day 5, 15-180 min): lower at all time points; Glucose levels of fasted animals versus untreated control (result in words) (C57BLKS/J db/db mice; after 5 days of treatment, overnight fasting): significantly decreased; Glucose levels of fed animals (result in words) (C57BLKS/J db/db mice; after 7 days of treatment, 200 mg/kg BW/day): significantly lowered; Blood Glucose Fasted (C57BLKS/J db/db mice; db/db mice, 200 mg/kg BW/day orally, after 5 days, overnight fasting): 196 mg/dL; Blood Glucose Fed (C57BLKS/J db/db mice; db/db mice, 200 mg/kg BW/day orally, after 7 days, fed animals): 388 mg/dL; Glucose AUC (OGTT) (C57BLKS/J db/db mice; db/db mice, 200 mg/kg BW/day orally, day 5, OGTT 1 g glucose/kg BW, 0-180 min): 51039
CCCC[C@@H]1OC(=O)C2=CCCCC21 (some centres unmarked) [Sedanolide]					higher differentiation	0.15 ± 0.01	0.18 ± 0.01		
Insulin [reference compound]									Mean OD ± SEM (oil Red O, 540 nm) (C3H10T1/2 cells [2]; insulin 1 × 10^−7 M alone): 0.14 ± 0.01 and 0.16 ± 0.01; Mean OD ± SEM (oil Red O, 540 nm) (C3H10T1/2 cells [2]; insulin 2 × 10^−7 M alone (negative control)): 0.687 ± 0.34
